The NIST ThermoML archive (doi:10.1016/j.jct.2012.10.012)
Several values for one entry are separate records, joined by “and”; a condition that tells them apart may be missing. Identical values can stand only once.

Conditions: Crystal, Calculated from knudsen effusion weight loss

CC1NC(=O)C(C)NC1=O (centres undefined) [3,6-dimethyl-2,5-piperazinedione]
Conditions	vapor or sublimation pressure
388.13 K	0.000116 kPa and 0.000126 kPa
390.16 K	0.000142 kPa and 0.000149 kPa and 0.00014 kPa
392.15 K	0.000171 kPa and 0.000179 kPa
394.13 K	0.000212 kPa and 0.000216 kPa
396.14 K	0.00026 kPa and 0.000247 kPa and 0.000267 kPa
398.15 K	0.000309 kPa and 0.000298 kPa and 0.000325 kPa
400.13 K	0.000387 kPa and 0.000371 kPa and 0.000388 kPa
402.13 K	0.000454 kPa and 0.000436 kPa and 0.000463 kPa
404.15 K	0.000543 kPa and 0.000563 kPa
406.14 K	0.000696 kPa and 0.000677 kPa and 0.000693 kPa
408.14 K	0.000821 kPa and 0.000818 kPa and 0.000785 kPa
410.15 K	0.000977 kPa and 0.000955 kPa and 0.000927 kPa

O=C1CNC(=O)CN1 [2,5-diketopiperazine]
Conditions	vapor or sublimation pressure
419.16 K	0.000101 kPa and 9.91e-05 kPa and 9.65e-05 kPa
421.11 K	0.000118 kPa and 0.000119 kPa and 0.000114 kPa
423.15 K	0.00014 kPa and 0.000137 kPa and 0.000141 kPa
425.16 K	0.000168 kPa and 0.000156 kPa and 0.000162 kPa
427.1 K	0.000196 kPa and 0.000188 kPa and 0.000195 kPa
429.14 K	0.000232 kPa and 0.000226 kPa and 0.000236 kPa
431.17 K	0.00029 kPa and 0.000257 kPa and 0.000273 kPa
433.11 K	0.00033 kPa and 0.00032 kPa and 0.000347 kPa
435.15 K	0.000382 kPa and 0.00038 kPa and 0.00039 kPa
437.19 K	0.00047 kPa and 0.000459 kPa
439.11 K	0.000548 kPa and 0.000519 kPa and 0.00052 kPa
441.16 K	0.000646 kPa and 0.000627 kPa and 0.000626 kPa
